Experimental data from US11364203B2, “Process for forming active domains dispersed in a matrix” (Bend Research, Inc., priority 2014, dated 2022).
≈ marks a conversion by molar mass, not a printed value.

What was measured:
Solubility in water = format: physicochemical
Solubility in acetone = format: physicochemical; settings: acetone at 25° C.

**Q.** For `CCC(=O)O[C@]1(C(=O)SCF)[C@H](C)C[C@H]2[C@@H]3C[C@H](F)C4=CC(=O)C=C[C@]4(C)[C@@]3(F)[C@@H](O)C[C@@]21C` [Fluticasone, (6S,8S,9R,10S,11S,13S,14S,16R,17R)-6,9-difluoro-17-(((fluoromethyl)thio)carbonyl)-11-hydroxy-10,13,16-trimethyl-3-oxo-6,7,8,9,10,11,12,13,14,15,16,17-dodecahydro-3H-cyclopenta[a]phenanthren-17-yl propionate], which “solubility in water (in words)” value (Solubility in water; water) is on record?
**A.** practically insoluble in water

**Q.** What about the solubility (Solubility in water; water at 25° C.) of the same compound?
**A.** < 1 µg/mL

**Q.** And the solubility in acetone (Solubility in acetone)?
**A.** 9000 µg/mL (≈ 18 mM)
